Measurements as given in patent publication US20240246964A1 (Arbutus Biopharma Corporation, priority 2021, published 2024).

What was measured:
[1] = target: PD-L1 His protein / PD-1 Fc protein (Homo sapiens (Human), UniProt Q9NZQ7); experiment: HTRF Assay (PD-1/PD-L1 interaction); format: binding; settings: PD-L1 His 6 nM, PD-1 Fc 6 nM
[2] = target: human PD-L1 (Homo sapiens (Human), UniProt Q9NZQ7); experiment: T cell activation luciferase reporter cell culture system (T Cell Activation Assay); format: cell-based; settings: luciferase reporter assay; PD-L1 aAPC/CHO-K1 cells with PD-1 effector Jurkat T cells
Sequence of human PD-L1 (Q9NZQ7 19-290): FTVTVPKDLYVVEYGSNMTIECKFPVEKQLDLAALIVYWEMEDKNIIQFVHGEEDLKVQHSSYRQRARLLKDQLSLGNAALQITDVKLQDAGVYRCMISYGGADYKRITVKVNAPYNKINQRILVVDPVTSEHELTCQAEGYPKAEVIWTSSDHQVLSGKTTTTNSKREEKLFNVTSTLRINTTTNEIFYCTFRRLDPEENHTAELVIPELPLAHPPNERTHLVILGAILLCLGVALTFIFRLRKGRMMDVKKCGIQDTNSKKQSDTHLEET

Sequence of PD-L1 His protein / PD-1 Fc protein (Q9NZQ7 19-238): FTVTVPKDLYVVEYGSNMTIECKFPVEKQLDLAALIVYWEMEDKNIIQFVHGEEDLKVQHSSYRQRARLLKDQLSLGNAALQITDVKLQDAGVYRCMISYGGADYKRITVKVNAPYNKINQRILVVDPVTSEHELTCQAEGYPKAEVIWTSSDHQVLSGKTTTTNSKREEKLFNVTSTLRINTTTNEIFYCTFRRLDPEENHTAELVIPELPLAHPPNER

COc1cc(-c2nccc(-c3cccc(NC(=O)c4cn(C)c(=O)n(C)c4=O)c3Cl)c2Cl)ccc1CN1CC2(CNC(=O)C2)C1 [Example 658, N-(2-Chloro-3-(3-chloro-2-(3-methoxy-4-((7-oxo-2,6-diazaspiro[3.4]octan-2-yl)methyl)phenyl)pyridin-4-yl)phenyl)-1,3-dimethyl-2,4-dioxo-1,2,3,4-tetrahydropyrimidine-5-carboxamide]
IC50 [1]: 0.25 nM
EC50 [2]: 492 nM

COc1nc(-c2cccc(-c3ccnc(-c4ccc(CN5CC6(C5)CN(C(C)=O)C6)c(OC(F)F)c4)c3Cl)c2Cl)ccc1CN1CC2(CNC(=O)C2)C1 [Example 662, 2-((6-(3-(2-(4-((6-Acetyl-2,6-diazaspiro[3.3]heptan-2-yl)methyl)-3-(difluoromethoxy)phenyl)-3-chloropyridin-4-yl)-2-chlorophenyl)-2-methoxypyridin-3-yl)methyl)-2,6-diazaspiro[3.4]octan-7-one]
IC50 [1]: 0.74 nM
EC50 [2]: 18.5 nM

COc1nc(-c2cccc(-c3ccnc(-c4ccc(CNC5CCN(C(C)=O)CC5)c(OC(F)F)c4)c3Cl)c2Cl)ccc1CN1CC2(CNC(=O)C2)C1 [Example 665, 2-((6-(3-(2-(4-(((1-Acetylpiperidin-4-yl)amino)methyl)-3-(difluoromethoxy)phenyl)-3-chloropyridin-4-yl)-2-chlorophenyl)-2-methoxypyridin-3-yl)methyl)-2,6-diazaspiro[3.4]octan-7-one]
IC50 [1]: 0.6 nM
EC50 [2]: 46.3 nM

COc1cc(-c2nccc(-c3nccc(-c4ccc(CN5CC6(CNC(=O)C6)C5)c(OC)n4)c3Cl)c2Cl)ccc1CN1CC2(CNC(=O)C2)C1 [Example 669, 2-(4-(3′,3″-Dichloro-6-methoxy-5-((7-oxo-2,6-diazaspiro[3.4]octan-2-yl)methyl)-[2,4′:2′,4″-terpyridin]-2″-yl)-2-methoxybenzyl)-2,6-diazaspiro[3.4]octan-7-one]
IC50 [1]: 0.34 nM
EC50 [2]: 296 nM

COc1cc(-c2nccc(-c3cccc(NC(=O)c4ccc(CNC[C@@H]5CCC(=O)N5)cn4)c3Cl)c2Cl)ccc1CNC[C@@H]1CCC(=O)N1 [Example 675, N-(2-Chloro-3-(3-chloro-2-(3-methoxy-4-(((((S)-5-oxopyrrolidin-2-yl)methyl)amino)methyl)phenyl)pyridin-4-yl)phenyl)-5-(((((S)-5-oxopyrrolidin-2-yl)methyl)amino)methyl)picolinamide]
IC50 [1]: 0.26 nM
EC50 [2]: 26.9 nM

COc1cc(-c2nccc(-c3cccc(NC(=O)c4ccc(CNCCO)cn4)c3Cl)c2Cl)ccc1CNCCO [Example 676, N-(2-Chloro-3-(3-chloro-2-(4-(((2-hydroxyethyl)amino)methyl)-3-methoxyphenyl)pyridin-4-yl)phenyl)-5-(((2-hydroxyethyl)amino)methyl)picolinamide]
IC50 [1]: 0.1 nM
EC50 [2]: 37.3 nM

COc1cc(-c2nccc(-c3cccc(NC(=O)c4ccc(CN5CC6(C5)CN(C(C)=O)C6)cn4)c3Cl)c2Cl)ccc1CN1CC2(C1)CN(C(C)=O)C2 [Example 677, 5-((6-Acetyl-2,6-diazaspiro[3.3]heptan-2-yl)methyl)-N-(3-(2-(4-((6-acetyl-2,6-diazaspiro[3.3]heptan-2-yl)methyl)-3-methoxyphenyl)-3-chloropyridin-4-yl)-2-chlorophenyl)picolinamide]
IC50 [1]: 0.04 nM
EC50 [2]: 1210 nM

COc1cc(-c2nccc(-c3cccc(NC(=O)c4ccc(CNC[C@H](C)O)cn4)c3Cl)c2Cl)ccc1CNC[C@H](C)O [Example 678, N-(2-Chloro-3-(3-chloro-2-(4-((((S)-2-hydroxypropyl)amino)methyl)-3-methoxyphenyl)pyridin-4-yl)phenyl)-5-((((S)-2-hydroxypropyl)amino)methyl)picolinamide]
IC50 [1]: 0.02 nM
EC50 [2]: 37 nM

COCCC(=O)N1CC2(CN(Cc3ccc(-c4nccc(-c5cccc(-c6ccc(CN7CC8(C7)CN(C(=O)CCOC)C8)c(OC)n6)c5Cl)c4Cl)cc3OC)C2)C1 [Example 679, 1-(6-((6-(2-Chloro-3-(3-chloro-2-(3-methoxy-4-((6-(3-methoxypropanoyl)-2,6-diazaspiro[3.3]heptan-2-yl)methyl)phenyl)pyridin-4-yl)phenyl)-2-methoxypyridin-3-yl)methyl)-2,6-diazaspiro[3.3]heptan-2-yl)-3-methoxypropan-1-one]
IC50 [1]: 0.16 nM
EC50 [2]: 30.5 nM

COc1nc(-c2cccc(-c3ccnc(-c4ccc(CN5CC6(CNC(=O)C6)C5)c(OC(F)F)c4)c3Cl)c2Cl)ccc1CNC1CCOCC1 [Example 683, 2-(4-(3-Chloro-4-(2-chloro-3-(6-methoxy-5-(((tetrahydro-2H-pyran-4-yl)amino)methyl)pyridin-2-yl)phenyl)pyridin-2-yl)-2-(difluoromethoxy)benzyl)-2,6-diazaspiro[3.4]octan-7-one]
IC50 [1]: 0.29 nM
EC50 [2]: 25.9 nM

COc1nc(-c2cccc(-c3ccnc(-c4ccc(CN5CC6(CNC(=O)C6)C5)c(OC(F)F)c4)c3Cl)c2Cl)ccc1CNC1CCN(C(C)=O)CC1 [Example 684, 2-(4-(4-(3-(5-(((1-Acetylpiperidin-4-yl)amino)methyl)-6-methoxypyridin-2-yl)-2-chlorophenyl)-3-chloropyridin-2-yl)-2-(difluoromethoxy)benzyl)-2,6-diazaspiro[3.4]octan-7-one]
IC50 [1]: 1.8 nM
EC50 [2]: 34.9 nM

COc1nc(-c2cccc(-c3ccnc(-c4ccc(CNC5CCOCC5)c(OC(F)F)c4)c3Cl)c2Cl)ccc1CN1CC2(CNC(=O)C2)C1 [Example 685, 2-((6-(2-Chloro-3-(3-chloro-2-(3-(difluoromethoxy)-4-(((tetrahydro-2H-pyran-4-yl)amino)methyl)phenyl)pyridin-4-yl)phenyl)-2-methoxypyridin-3-yl)methyl)-2,6-diazaspiro[3.4]octan-7-one]
IC50 [1]: 4.22 nM
EC50 [2]: 51.7 nM

COc1nc(-c2ccnc(-c3cccc4c3CC[C@@H]4Oc3nc(OC)c(CNC[C@@H]4CCC(=O)N4)cc3C(F)(F)F)c2Cl)ccc1CNC1CCOCC1 [Example 686, (S)-5-((((6-(((S)-4-(3′-chloro-6-methoxy-5-(((tetrahydro-2H-pyran-4-yl)amino)methyl)-[2,4′-bipyridin]-2′-yl)-2,3-dihydro-1H-inden-1-yl)oxy)-2-methoxy-5-(trifluoromethyl)pyridin-3-yl)methyl)amino)methyl)pyrrolidin-2-one]
IC50 [1]: 14.8 nM
EC50 [2]: 11.1 nM

COCC(=O)N1CC2(CN(Cc3ccc(-c4cccc(-c5ccnc(-c6ccc(CN7CC8(CNC(=O)C8)C7)c(OC)c6)c5Cl)c4Cl)nc3OC)C2)C1 [Example 687, 2-(4-(3-Chloro-4-(2-chloro-3-(6-methoxy-5-((6-(2-methoxyacetyl)-2,6-diazaspiro[3.3]heptan-2-yl)methyl)pyridin-2-yl)phenyl)pyridin-2-yl)-2-methoxybenzyl)-2,6-diazaspiro[3.4]octan-7-one]
IC50 [1]: 0.08 nM
EC50 [2]: 26.3 nM

COc1nc(-c2cccc(-c3ccnc(-c4ccc(CN5CC6(CNC(=O)C6)C5)c(OC(F)F)c4)c3Cl)c2Cl)ccc1CN1CC2(C1)CN(C(C)=O)C2 [Example 688, 2-(4-(4-(3-(5-((6-Acetyl-2,6-diazaspiro[3.3]heptan-2-yl)methyl)-6-methoxypyridin-2-yl)-2-chlorophenyl)-3-chloropyridin-2-yl)-2-(difluoromethoxy)benzyl)-2,6-diazaspiro[3.4]octan-7-one]
IC50 [1]: 1.46 nM
EC50 [2]: 17 nM
